Biological target: T1, human PAH with the R408W mutation (Homo sapiens, UniProt P00439, R408W)
T1 construct: expressed in transfected cells
T1 sequence (P00439 1-452 R408W): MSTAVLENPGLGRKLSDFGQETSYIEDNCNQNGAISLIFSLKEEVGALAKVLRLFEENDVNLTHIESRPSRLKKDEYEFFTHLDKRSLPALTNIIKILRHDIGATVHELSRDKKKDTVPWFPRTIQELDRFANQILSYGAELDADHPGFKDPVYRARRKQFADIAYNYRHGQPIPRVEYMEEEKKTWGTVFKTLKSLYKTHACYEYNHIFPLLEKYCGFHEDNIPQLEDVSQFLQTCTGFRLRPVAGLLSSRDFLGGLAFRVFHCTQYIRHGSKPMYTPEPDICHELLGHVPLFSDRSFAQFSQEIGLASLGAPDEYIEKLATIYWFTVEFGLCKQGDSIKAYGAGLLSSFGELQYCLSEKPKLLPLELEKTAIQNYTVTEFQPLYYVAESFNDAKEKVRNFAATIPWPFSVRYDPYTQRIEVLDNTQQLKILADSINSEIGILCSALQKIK
Assay: Cell Based Phenylalanine Flux Assay;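 further: Ten-point dose curve from 2-fold serial dilutions, run in duplicate at 0.5% DMSO final, tracer step used 20 µM sepiapterin and 800 µM labeled phenylalanine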
Conditions: A375 cells expressing human R408W PAH; 24 hrs with compound, then sepiapterin and 13C9,15N-Phenylalanine for 4 hours; 13C-Tyrosine by LC-MS; average where tested multiple times; read-out: AC50

| Compound | AC50 [nM] |
| --- | --- |
| Fc1cccc(F)c1-c1nnc(N2CCc3[nH]cnc3[C@@H]2c2cc3cccc(Cl)n3n2)o1 [Example 2088, (R)-2-(4-(7-chloropyrazolo [1,5-a]pyridin-2-yl)-1,4,6,7-tetrahydro-5H-imidazo [4,5-c]pyridin-5-yl)-5-(2,6-difluorophenyl)-1,3,4-oxadiazole] | > 5000 |
| Cc1cccc2cc([C@H]3c4nc[nH]c4CCN3c3nnc(-c4c(F)cccc4F)o3)nn12 [Example 2090, (R)-2-(2,6-difluorophenyl)-5-(4-(7-methylpyrazolo[1,5-a]pyridin-2-yl)-1,4,6,7-tetrahydro-5H-imidazo[4,5-c]pyridin-5-yl)-1,3,4-oxadiazole] | > 5000 |
| Cc1cccc2cc([C@@H]3c4nc[nH]c4CCN3c3ccc(C(F)(F)F)cn3)nn12 [Example 2097, (S)-4-(7-methylpyrazolo [1,5-a]pyridin-2-yl)-5-(5-(trifluoromethyl)pyridin-2-yl)-4,5,6,7-tetrahydro-1H-imidazo[4,5-c]pyridine] | 500 to 1000 |
| CC(C)(C)c1ncc(C(=O)N2CCc3[nH]cnc3[C@H]2c2cc3c(F)cccn3n2)o1 [Example 2100, (S)-(2-(tert-butyl)oxazol-5-yl)(4-(4-fluoropyrazolo[1,5-a]pyridin-2-yl)-1,4,6,7-tetrahydro-5H-imidazo[4,5-c]pyridin-5-yl)methanone] | < 500 |
| Cn1cc(-c2nc(C3CC3)c(C(=O)N3CCc4[nH]cnc4[C@H]3c3cc4c(C(F)F)cccn4n3)o2)cn1 [Example 2114, (S)-(4-cyclopropyl-2-(1-methyl-1H-pyrazol-4-yl)oxazol-5-yl)(4-(4-(difluoromethyl)pyrazolo[1,5-a]pyridin-2-yl)-1,4,6,7-tetrahydro-5H-imidazo[4,5-c]pyridin-5-yl)methanone] | 500 to 1000 |
| Cn1cc(-c2nc(C3CC3)c(C(=O)N3CCc4[nH]cnc4[C@H]3c3cc4c(C(F)(F)F)cccn4n3)o2)cn1 [Example 2116, (S)-(4-cyclopropyl-2-(1-methyl-1H-pyrazol-4-yl)oxazol-5-yl)(4-(4-(trifluoromethyl)pyrazolo[1,5-a]pyridin-2-yl)-1,4,6,7-tetrahydro-5H-imidazo[4,5-c]pyridin-5-yl)methanone] | < 500 |
| Cn1cc(-c2nc(C3CC3)c(C(=O)N3CCc4[nH]cnc4[C@@H]3c3cc4c(C(F)(F)F)cccn4n3)o2)cn1 [Example 2117, (R)-(4-cyclopropyl-2-(1-methyl-1H-pyrazol-4-yl)oxazol-5-yl)(4-(4-(trifluoromethyl)pyrazolo[1,5-a]pyridin-2-yl)-1,4,6,7-tetrahydro-5H-imidazo[4,5-c]pyridin-5-yl)methanone] | 1000 to 5000 |
| Cc1cccn2nc([C@H]3c4nc[nH]c4CCN3C(=O)c3oc(-c4ccccn4)nc3C3CC3)cc12 [Example 2121, (R)-(4-cyclopropyl-2-(pyridin-2-yl)oxazol-5-yl)(4-(4-methylpyrazolo[1,5-a]pyridin-2-yl)-1,4,6,7-tetrahydro-5H-imidazo[4,5-c]pyridin-5-yl)methanone] | 1000 to 5000 |
| O=C(c1oc(-c2ccccn2)nc1C1CC1)N1CCc2[nH]cnc2[C@H]1c1cc2c(C(F)(F)F)cccn2n1 [Example 2124, (S)-(4-cyclopropyl-2-(pyridin-2-yl)oxazol-5-yl)(4-(4-(trifluoromethyl)pyrazolo [1,5-a]pyridin-2-yl)-1,4,6,7-tetrahydro-5H-imidazo[4,5-c]pyridin-5-yl)methanone] | < 500 |
| Cc1cccn2nc([C@@H]3c4nc[nH]c4CCN3c3ccccn3)cc12 [Example 2127, (S)-4-(4-methylpyrazolo [1,5-a]pyridin-2-yl)-5-(pyridin-2-yl)-4,5,6,7-tetrahydro-1H-imidazo[4,5-c]pyridine] | < 500 |
| FC(F)(F)c1ccc(N2CCc3[nH]cnc3[C@H]2c2cc3cccc(Cl)n3n2)nc1 [Example 2136, (S)-4-(7-chloropyrazolo [1,5-a]pyridin-2-yl)-5-(5-(trifluoromethyl)pyridin-2-yl)-4,5,6,7-tetrahydro-1H-imidazo[4,5-c]pyridine] | < 500 |
| CC(C)c1cccn2nc([C@@H]3c4nc[nH]c4CCN3c3nnc(C(F)(F)F)o3)cc12 [Example 2147, (S)-2-(4-(4-isopropylpyrazolo [1,5-a]pyridin-2-yl)-1,4,6,7-tetrahydro-5H-imidazo [4,5-c]pyridin-5-yl)-5-(trifluoromethyl)-1,3,4-oxadiazole] | < 500 |
| CC(C)c1cccn2nc([C@@H]3c4nc[nH]c4CCN3c3ccc(C(F)(F)F)cn3)cc12 [Example 2148, (S)-4-(4-isopropylpyrazolo [1,5-a]pyridin-2-yl)-5-(5-(trifluoromethyl)pyridin-2-yl)-4,5,6,7-tetrahydro-1H-imidazo[4,5-c]pyridine] | < 500 |
| FC(F)Oc1cccn2nc([C@H]3c4nc[nH]c4CCN3c3nnc(C(F)(F)F)o3)cc12 [Example 2154, (R)-2-(4-(4-(difluoromethoxy)pyrazolo[1,5-a]pyridin-2-yl)-1,4,6,7-tetrahydro-5H-imidazo[4,5-c]pyridin-5-yl)-5-(trifluoromethyl)-1,3,4-oxadiazole] | > 5000 |
| FC(F)Oc1cccn2nc([C@@H]3c4nc[nH]c4CCN3c3nnc(C(F)(F)F)o3)cc12 [Example 2155, (S)-2-(4-(4-(difluoromethoxy)pyrazolo[1,5-a]pyridin-2-yl)-1,4,6,7-tetrahydro-5H-imidazo[4,5-c]pyridin-5-yl)-5-(trifluoromethyl)-1,3,4-oxadiazole] | < 500 |
| FC(F)c1nnc(N2CCc3[nH]cnc3[C@H]2c2cc3c(C4CC4)cccn3n2)o1 [Example 2167] | < 500 |

Second part, the compound after the results:

| AC50 [nM] | Compound |
| --- | --- |
| 500 to 1000 | Fc1cccn2nc([C@@H]3c4nc[nH]c4CCN3c3nnc(-c4cnccn4)o3)cc12 [Example 2159, (S)-2-(4-(4-fluoropyrazolo [1,5-a]pyridin-2-yl)-1,4,6,7-tetrahydro-5H-imidazo[4,5-c]pyridin-5-yl)-5-(pyrazin-2-yl)-1,3,4-oxadiazole] |
| > 5000 | Clc1cccn2nc([C@H]3c4nc[nH]c4CCN3c3nnc(-c4cnccn4)o3)cc12 [Example 2160, (R)-2-(4-(4-chloropyrazolo [1,5-a]pyridin-2-yl)-1,4,6,7-tetrahydro-5H-imidazo[4,5-c]pyridin-5-yl)-5-(pyrazin-2-yl)-1,3,4-oxadiazole] |
| < 500 | Clc1cccn2nc([C@@H]3c4nc[nH]c4CCN3c3nnc(-c4cnccn4)o3)cc12 [Example 2161, (S)-2-(4-(4-chloropyrazolo [1,5-a]pyridin-2-yl)-1,4,6,7-tetrahydro-5H-imidazo[4,5-c]pyridin-5-yl)-5-(pyrazin-2-yl)-1,3,4-oxadiazole] |
| > 5000 | CC(C)c1cccn2nc([C@H]3c4nc[nH]c4CCN3c3nnc(-c4cnccn4)o3)cc12 [Example 2176, (R)-2-(4-(4-isopropylpyrazolo [1,5-a]pyridin-2-yl)-1,4,6,7-tetrahydro-5H-imidazo [4,5-c]pyridin-5-yl)-5-(pyrazin-2-yl)-1,3,4-oxadiazole] |
| 500 to 1000 | CC(C)c1cccn2nc([C@@H]3c4nc[nH]c4CCN3c3nnc(-c4cnccn4)o3)cc12 [Example 2177, (S)-2-(4-(4-isopropylpyrazolo [1,5-a]pyridin-2-yl)-1,4,6,7-tetrahydro-5H-imidazo [4,5-c]pyridin-5-yl)-5-(pyrazin-2-yl)-1,3,4-oxadiazole] |
| 500 to 1000 | Fc1cccn2nc([C@@H]3c4nc[nH]c4CCN3c3nnc(-c4ccncn4)o3)cc12 [Example 2178, (S)-2-(4-(4-fluoropyrazolo [1,5-a]pyridin-2-yl)-1,4,6,7-tetrahydro-5H-imidazo[4,5-c]pyridin-5-yl)-5-(pyrimidin-4-yl)-1,3,4-oxadiazole] |
| 500 to 1000 | Clc1cccn2nc([C@@H]3c4nc[nH]c4CCN3c3nnc(-c4ccncn4)o3)cc12 [Example 2182, (S)-2-(4-(4-chloropyrazolo [1,5-a]pyridin-2-yl)-1,4,6,7-tetrahydro-5H-imidazo[4,5-c]pyridin-5-yl)-5-(pyrimidin-4-yl)-1,3,4-oxadiazole] |
| > 5000 | Cc1cccn2nc([C@H]3c4nc[nH]c4CCN3c3nnc(C4(C)CC4)o3)cc12 [Example 2188, (R)-2-(1-methylcyclopropyl)-5-(4-(4-methylpyrazolo[1,5-a]pyridin-2-yl)-1,4,6,7-tetrahydro-5H-imidazo[4,5-c]pyridin-5-yl)-1,3,4-oxadiazole] |
| 500 to 1000 | Cc1ncccc1-c1nnc(N2CCc3[nH]cnc3[C@H]2c2cc3c(C)cccn3n2)o1 [Example 2206, (S)-2-(4-(4-methylpyrazolo [1,5-a]pyridin-2-yl)-1,4,6,7-tetrahydro-5H-imidazo [4,5-c]pyridin-5-yl)-5-(2-methylpyridin-3-yl)-1,3,4-oxadiazole] |
| 500 to 1000 | Cc1ncccc1-c1nnc(N2CCc3[nH]cnc3[C@H]2c2cc3c(C(F)(F)F)cccn3n2)o1 [Example 2208, (S)-2-(2-methylpyridin-3-yl)-5-(4-(4-(trifluoromethyl)pyrazolo [1,5-a]pyridin-2-yl)-1,4,6,7-tetrahydro-5H-imidazo [4,5-c]pyridin-5-yl)-1,3,4-oxadiazole] |
| 1000 to 5000 | Cc1ncccc1-c1nnc(N2CCc3[nH]cnc3[C@H]2c2cc3c(C(F)F)cccn3n2)o1 [Example 2210, (S)-2-(4-(4-(difluoromethyl)pyrazolo[1,5-a]pyridin-2-yl)-1,4,6,7-tetrahydro-5H-imidazo [4,5-c]pyridin-5-yl)-5-(2-methylpyridin-3-yl)-1,3,4-oxadiazole] |
